# Test results reported in patent publication US7179832B2, “Glycogen synthase kinase 3β inhibitor, composition and process for the preparation thereof” (Crystalgenomics, Inc., priority 2003, dated 2007).
# Target: GSK-3β (Homo sapiens, UniProt P49841)
# Experiment: Assay for GSK-3β inhibiting activity (32P-ATP, phospho-CREB peptide substrate, filter paper, CPM)
# Assay type: biochemical
# Details: GSK-3β inhibiting activity; 100 nM GSK-3β protein, 100 μM phospho-CREB peptide, 100 μM ATP, 30° C. for 1 hour; read-out: IC50
# Protocol: Assay for GSK-3β inhibiting activity
# First, PCR (polymerase chain reaction) was carried out using human DNA as a template as well as primers which were designed to correspond to the 3′- and 5′ ends of the polynucleotide coding human GSK-3β gene (Genbank Accession No.: L33801). The BamH1/XhoI fragment of the amplified PCR product thus obtained was inserted into the pGex vector between the BamH1 and XhoI sites, and the vector obtained was transformed into E. coli BL21(DE3). The transformed cells thus obtained was incubated in […] (1% Bacto-trypton, 0.5% yeast extract, 1% NaCl) containing ampicillin ([…]) until the optical density at 600 nm reached about 0.5. The cultured mixture was cooled to 18° C. and isopropyl β-D-thiogalacto-pyranoside (IPTG) was added thereto to a final concentration of 0.5 mM. After 16 hours, the resultant was centrifuged at 10,000×g for 10 min, the collected cells were suspended in a buffer solution (30 mM Tris-HCl (pH 7.5), 100 mM NaCl, 5% glycerol, 2 mM DTT) and the cells were disrupted using Sonic Dismembrator (Fisher, U.S.A.) in a ice bath. The resulting solution was centrifuged at 16,000 rpm for 30 minutes. […] The purified GSK-3β protein was diluted in a buffer solution (20 mM HEPES (pH 7.5), 5% glycerol, 2 mM DTT) to a final concentration of 50 mM NaCl and the resulting solution was subjected to mono S column chromatography (eluent: linear gradient from 0M to 1M NaCl buffer) using mono S column (Pharmacia Biotech, U.S.A.) equilibrated in the same buffer solution to obtain GSK-3β protein.
# The reaction was stopped by adding 5 μl of 5% phosphoric acid to 25 μl of the resulting solution. The resulting mixture was centrifuged at 15,000 rpm for 10 min, 20 μl of the supernatant was added dropwise to Whatman p81 filter paper, and then, the resulting filter paper was washed with 0.5% phosphate buffer for 10 min. The filter paper was further washed 3 times and the enzymatic activity was determined by examining the extent of phospho-CREB peptide phosphorylation which is represented by the unit of count per minute (CPM), measured with a β-counter (Packard, USA).
# The GSK-3β inhibiting activity was then calculated in accordance with the following equation:
# [formula] wherein the blank represents a value obtained without the use of the enzyme and the compound of the present invention, and the control, in the absence of the compound of the present invention.
# Chain of GSK-3β (P49841 whole entry): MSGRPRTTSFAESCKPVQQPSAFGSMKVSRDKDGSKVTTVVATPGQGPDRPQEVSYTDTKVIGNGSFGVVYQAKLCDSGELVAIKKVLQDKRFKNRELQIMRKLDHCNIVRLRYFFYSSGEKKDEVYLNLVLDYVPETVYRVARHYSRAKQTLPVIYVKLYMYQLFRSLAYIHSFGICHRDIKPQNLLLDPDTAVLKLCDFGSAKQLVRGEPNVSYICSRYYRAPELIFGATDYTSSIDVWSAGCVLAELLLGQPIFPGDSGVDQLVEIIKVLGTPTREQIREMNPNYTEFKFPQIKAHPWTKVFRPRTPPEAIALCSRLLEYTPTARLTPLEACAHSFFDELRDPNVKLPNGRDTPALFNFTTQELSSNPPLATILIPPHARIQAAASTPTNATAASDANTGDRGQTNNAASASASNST
row,IC50 [µM],Structure (SMILES)
1,> 1,O=C(NCCc1ccccc1)c1ccc(O)c2[nH]c(-c3ccc(Cl)cc3)nc12 [Compound 71]
2,0.12,O=C(NCCc1ccc([N+](=O)[O-])cc1)c1ccc(O)c2[nH]c(-c3ccc(Cl)cc3)nc12 [Compound 72]
3,> 1,Nc1ccc(CCNC(=O)c2ccc(O)c3[nH]c(-c4ccc(Cl)cc4)nc23)cc1 [Compound 73]
4,> 1,O=C(NCCc1ccc(O)cc1)c1ccc(O)c2[nH]c(-c3ccc(Cl)cc3)nc12 [Compound 74]
5,0.009,CS(=O)(=O)Nc1ccc(CCNC(=O)c2ccc(O)c3nc(-c4ccc(Cl)cc4)[nH]c23)cc1 [Compound 75]
6,0.05,Cc1ccc(S(=O)(=O)Nc2ccc(CCNC(=O)c3ccc(O)c4[nH]c(-c5ccc(Cl)cc5)nc34)cc2)cc1 [Compound 76]
7,0.033,COc1ccc(CCNC(=O)c2ccc(O)c3[nH]c(-c4ccc(Cl)cc4)nc23)cc1O [Compound 77]
8,> 1,O=C(NCCN1CCOCC1)c1ccc(O)c2[nH]c(-c3ccc(Cl)cc3)nc12 [Compound 78]
9,0.12,O=C(NCCc1ccc(N2C(=O)c3ccccc3C2=O)cc1)c1ccc(O)c2[nH]c(-c3ccc(Cl)cc3)nc12 [Compound 79]
10,0.07,CCS(=O)(=O)Nc1ccc(CCNC(=O)c2ccc(O)c3[nH]c(-c4ccc(Cl)cc4)nc23)cc1 [Compound 80]
11,> 1,O=C(NCCNc1ccc([N+](=O)[O-])cn1)c1ccc(O)c2[nH]c(-c3ccc(Cl)cc3)nc12 [Compound 81]
12,> 1,O=C(NCCc1ccccn1)c1ccc(O)c2[nH]c(-c3ccc(Cl)cc3)nc12 [Compound 82]
13,> 1,O=C(NCCc1c[nH]cn1)c1ccc(O)c2[nH]c(-c3ccc(Cl)cc3)nc12 [Compound 83]
14,0.25,CN1CCN(CC(=O)Nc2ccc(CCNC(=O)c3ccc(O)c4[nH]c(-c5ccc(Cl)cc5)nc34)cc2)CC1 [Compound 86]
15,0.23,CCN1CCN(CC(=O)Nc2ccc(CCNC(=O)c3ccc(O)c4[nH]c(-c5ccc(Cl)cc5)nc34)cc2)CC1 [Compound 87]
16,0.22,CN(C)CC(=O)Nc1ccc(CCNC(=O)c2ccc(O)c3[nH]c(-c4ccc(Cl)cc4)nc23)cc1 [Compound 88]
17,0.32,CCN(CC)CC(=O)Nc1ccc(CCNC(=O)c2ccc(O)c3[nH]c(-c4ccc(Cl)cc4)nc23)cc1 [Compound 89]
18,0.13,Nc1ccc(CCNC(=O)c2ccc(O)c3[nH]c(-c4ccc(Cl)cc4)nc23)cc1 [Compound 90]
19,0.08,O=C(CN1CCOCC1)Nc1ccc(CCNC(=O)c2ccc(O)c3[nH]c(-c4ccc(Cl)cc4)nc23)cc1 [Compound 92]
20,> 1,CN(C)c1ccc(CCNC(=O)c2ccc(O)c3[nH]c(-c4ccc(Cl)cc4)nc23)cc1 [Compound 93]

row,IC50 [µM],Structure (SMILES)
1,> 5,O=C(NCCc1ccc(OCCN2CCOCC2)cc1)c1ccc(O)c2[nH]c(-c3ccc(Cl)cc3)nc12 [Compound 94]
2,> 1,CN1CCN(CCOc2ccc(CCNC(=O)c3ccc(O)c4[nH]c(-c5ccc(Cl)cc5)nc34)cc2)CC1 [Compound 95]
3,0.022,O=C(NCCc1ccccc1O)c1ccc(O)c2[nH]c(-c3ccc(Cl)cc3)nc12 [Compound 96]
4,0.17,COc1ccccc1CCNC(=O)c1ccc(O)c2[nH]c(-c3ccc(Cl)cc3)nc12 [Compound 97]
5,> 1,O=C(NCCc1cccc(Br)c1)c1ccc(O)c2[nH]c(-c3ccc(Cl)cc3)nc12 [Compound 98]
6,0.2,O=C(NCCc1ccc([N+](=O)[O-])cc1)c1ccc(O)c2[nH]c(-c3ccc(Cl)cc3Cl)nc12 [Compound 100]
7,> 1,COc1cc(CCNC(=O)c2ccc(O)c3[nH]c(-c4ccc(Cl)cc4Cl)nc23)ccc1O [Compound 101]
8,0.23,COc1ccc(CCNC(=O)c2ccc(O)c3[nH]c(-c4ccc(Cl)cc4Cl)nc23)cc1O [Compound 102]
9,> 5,NCCNC(=O)c1ccc(O)c2[nH]c(-c3ccc(Cl)cc3Cl)nc12 [Compound 103]
10,> 1,O=C(NCCc1ccc(O)cc1)c1ccc(O)c2[nH]c(-c3ccc(Cl)cc3Cl)nc12 [Compound 104]
11,0.05,Cc1ccc(S(=O)(=O)Nc2ccc(CCNC(=O)c3ccc(O)c4[nH]c(-c5ccc(Cl)cc5Cl)nc34)cc2)cc1 [Compound 105]
12,0.05,O=C(NCCc1ccc(N2C(=O)c3ccccc3C2=O)cc1)c1ccc(O)c2[nH]c(-c3ccc(Cl)cc3Cl)nc12 [Compound 107]
13,> 1,O=C(NCCN1CCOCC1)c1ccc(O)c2[nH]c(-c3ccc(Cl)cc3Cl)nc12 [Compound 108]
14,0.28,O=C(NCCNc1ccc([N+](=O)[O-])cn1)c1ccc(O)c2[nH]c(-c3ccc(Cl)cc3Cl)nc12 [Compound 110]
15,> 1,O=C(NCCc1ccccn1)c1ccc(O)c2[nH]c(-c3ccc(Cl)cc3Cl)nc12 [Compound 111]
16,0.04,CC(=O)Nc1ccc(CCNC(=O)c2ccc(O)c3[nH]c(-c4ccc(Cl)cc4Cl)nc23)cc1 [Compound 112]
17,0.19,CCCCC(=O)Nc1ccc(CCNC(=O)c2ccc(O)c3[nH]c(-c4ccc(Cl)cc4Cl)nc23)cc1 [Compound 113]
18,0.001,CS(=O)(=O)Nc1ccc(CCNC(=O)c2ccc(O)c3[nH]c(-c4ccc(F)cc4)nc23)cc1 [Compound 114]
19,0.026,Cc1ccc(S(=O)(=O)Nc2ccc(CCNC(=O)c3ccc(O)c4nc(-c5ccc(F)cc5)[nH]c34)cc2)cc1 [Compound 115]
20,0.003,CCS(=O)(=O)Nc1ccc(CCNC(=O)c2ccc(O)c3[nH]c(-c4ccc(F)cc4)nc23)cc1 [Compound 116]

row,IC50 [µM],Structure (SMILES)
1,0.03,CC(=O)Nc1ccc(CCNC(=O)c2ccc(O)c3[nH]c(-c4ccc(F)cc4)nc23)cc1 [Compound 117]
2,> 5,CN1CCN(CCNC(=O)c2ccc(O)c3[nH]c(-c4ccc(F)cc4)nc23)CC1 [Compound 118]
3,> 5,O=C(NCCN1CCOCC1)c1ccc(O)c2[nH]c(-c3ccc(F)cc3)nc12 [Compound 119]
4,0.07,CCCCC(=O)Nc1ccc(CCNC(=O)c2ccc(O)c3[nH]c(-c4ccc(F)cc4)nc23)cc1 [Compound 120]
5,0.03,O=C(NCCc1ccc(O)cc1)c1ccc(O)c2[nH]c(-c3ccc(F)cc3)nc12 [Compound 121]
6,0.05,CS(=O)(=O)Nc1ccc(NCCNC(=O)c2ccc(O)c3[nH]c(-c4ccc(F)cc4)nc23)nc1 [Compound 123]
7,0.07,Cc1ccc(S(=O)(=O)Nc2ccc(NCCNC(=O)c3ccc(O)c4[nH]c(-c5ccc(F)cc5)nc34)nc2)cc1 [Compound 124]
8,> 1,O=C(NCCc1c[nH]cn1)c1ccc(O)c2[nH]c(-c3ccc(F)cc3)nc12 [Compound 125]
9,0.18,CN1CCN(CC(=O)Nc2ccc(CCNC(=O)c3ccc(O)c4[nH]c(-c5ccc(F)cc5)nc34)cc2)CC1 [Compound 127]
10,0.15,CCN1CCN(CC(=O)Nc2ccc(CCNC(=O)c3ccc(O)c4[nH]c(-c5ccc(F)cc5)nc34)cc2)CC1 [Compound 128]
11,0.12,CN(C)CC(=O)Nc1ccc(CCNC(=O)c2ccc(O)c3[nH]c(-c4ccc(F)cc4)nc23)cc1 [Compound 129]
12,0.33,CCN(CC)CC(=O)Nc1ccc(CCNC(=O)c2ccc(O)c3[nH]c(-c4ccc(F)cc4)nc23)cc1 [Compound 130]
13,0.17,Nc1ccc(CCNC(=O)c2ccc(O)c3[nH]c(-c4ccc(F)cc4)nc23)cc1 [Compound 131]
14,0.19,O=C(NCCc1ccc(N2CCOCC2)cc1)c1ccc(O)c2[nH]c(-c3ccc(F)cc3)nc12 [Compound 132]
15,> 1,CN(C)c1ccc(CCNC(=O)c2ccc(O)c3[nH]c(-c4ccc(F)cc4)nc23)cc1 [Compound 135]
16,0.24,O=C(NCCc1ccc(OCCN2CCOCC2)cc1)c1ccc(O)c2[nH]c(-c3ccc(F)cc3)nc12 [Compound 136]
17,0.005,O=C(NCCc1ccccc1O)c1ccc(O)c2[nH]c(-c3ccc(F)cc3)nc12 [Compound 137]
18,> 1,COc1ccccc1CCNC(=O)c1ccc(O)c2[nH]c(-c3ccc(F)cc3)nc12 [Compound 138]
19,0.12,O=C(NCCc1cccc(Br)c1)c1ccc(O)c2[nH]c(-c3ccc(F)cc3)nc12 [Compound 139]
20,> 1,CS(=O)(=O)Nc1ccc(CCNC(=O)c2ccc(O)c3nc(-c4ccc(F)cc4F)[nH]c23)cc1 [Compound 140]

# Same assay, conditions: IC50 (μM)
row,Structure (SMILES),IC50 [µM]
1,CCS(=O)(=O)Nc1ccc(CCNC(=O)c2ccc(O)c3nc(-c4ccc(Cl)cc4Cl)[nH]c23)cc1 [Compound 109],0.03
2,O=C(CN1CCOCC1)Nc1ccc(CCNC(=O)c2ccc(O)c3nc(-c4ccc(F)cc4)[nH]c23)cc1 [Compound 134],0.04
